Measured values taken from patent US20220054588A1, “USE OF SAP FOR THE TREATMENT OF EUROTIOMYCETES FUNGI INFECTIONS” (HUMANITAS MIRASOLE S.P.A., priority 2018, published 2022).

Tests used:
A. fumigatus conidia = assay: Resazurin-based fungal viability assay; set-up: species or system Aspergillus fumigatus; details: for microbicidal activity: 1 min, conidia pre-opsonised with human SAP
Description: (§1) FIG. 12 depicts the therapeutic efficacy of SAP in treatment of invasive aspergillosis. a) b) c) survival of transiently immunosuppressed wt mice after injection with the indicated doses of AF conidia. The curve of untreated mice (n=3) with cyclophosphamide is also shown (a). Human SAP (4 mg/Kg) was injected at 2 h and 24 h after infection. a) AF 5.10^7, n=17; AF 5.10^7+SAP, n=15; b) AF 1.10^7, n=7; AF 1.10^7+SAP, n=8; c) AF 5.10^6, n=8; AF 5.10^6+SAP, n=10.***, P<0.005 SAP-treated vs. saline (Mantel-Cox test). One-way ANOVA, P<0.0001. d) lung CFU in mice treated with cyclophosphamide and infected with 1.10^7 AF conidia.*, P<0.05 (Mann-Whitney test). e) quantitative analysis of AF viability performed using a resazurin-based assay. Plasma (30%) from wt and Apcs^−/− mice were incubated (1 min) with 1.5×10^5 AF conidia pre-opsonized or not with SAP. Results are mean±SD of red fluorescence (excitation/emission 535/580-610 nm) intensity of the resazurin once reduced to resorufin within viable cells. Effect of Posaconazole (POC; 1 μM) exposure is also shown. Results are mean±SEM relative to the condition without serum (grey symbols) of two experiments performed with n=10 mice/group. […] AF viability assay performed in sera depleted from complement components. Figure summarizes one experiment out of 5 also conducted with serum 10%. Mean±SD.*, P<0.05; **, P<0.01 (unpaired t-test). g) and h) FACS analysis of MAC deposition on AF conidia (1×10^7) in presence of sera depleted from complement components (e) and the effect of SAP (f). Mean±SEM of 2 experiments performed out of 4. e, f,*, P<0.05;**, P<0.01;***, P<0.005;****, P<0.001; (Mann-Whitney test).
Fungal viability assay. Effect of SAP on A. fumigatus killing was evaluated by a resazurin-based cell viability assay as described (Mantovani et al., 2010). A volume of 10 μl PBS, pH 7.4, containing 1.5×10^5 conidia eventually opsonized with human SAP (100 μg/ml per 1×10^9 conidia, 1 h at r.t.) was placed into sterile round bottom Corning® 96-well polypropylene microplate and incubated for 1 and 30 min at 37° C. with 20 μl of 10 and 30% plasma-heparin from wt and Apcs^−/− mice or human serum and different complement component-depleted sera. After incubation, plates were immediately cooled on ice and cold-centrifuged (2000 rpm, 10 min at 4° C.), and then supernatant removed. Conidia not incubated with plasma or serum were used as a negative control. Conidia treated with the fungicide drug Posaconazole (POC; 1 μM) were considered as positive control in the assay. […] After 17 h reaction at 37° C., fluorescence (excitation/emission at ≈530-560/590 nm) intensity was measured by microplate reader Synergy™ H4 (BioTek, France). Results represent ratio of fluorescence intensity values relative to those measured in negative controls. […]

[1] = tested on: membrane attack complex (MAC; C5b-C9) on A. fumigatus conidia; assay: FACS analysis of MAC (C5b-C9) deposition on A. fumigatus conidia in human sera; assay type: biochemical
Description: as §1
Complement deposition on Aspergillus fumigatus. A volume of 10 μl PBS, pH 7.4, containing 1×10^7 conidia eventually opsonized with murine SAP (100 μg/ml per 1×10^9 conidia, 1 h at r.t.) was incubated (37° C.) in round bottom wells of Corning® 96-well polypropylene microplates for the indicated time points with 20 μl mouse plasma-heparin or 20 μl human NS and complement depleted sera (diluted in PBS at 10% and 30%). Complement deposition was blocked by addition of EDTA (10 mM final concentration) and by cooling in ice. After centrifugation (2000 rpm, 10 min at 4° C.), when indicated supernatant was collected for C5a measurement by ELISA. […] Conidia were then incubated (1 h, at 4° C.) with Alexa Fluor® 488 and 647-conjugated species-specific cross-adsorbed detection antibodies (2 μg/ml; ThermoFisher Scientific-Molecular Probes) and analysed by BD FACS Canto™ II Flow Cytometer (BD Biosciences) using forward and side scatter parameters to gate on at least 8,000 conidia. […] Results were expressed as frequency of conidia showing fluorescence compared with irrelevant controls and as geometric conidia MFI.

Substance: human native SAP: Native SAP from human serum purchased by Merck-Millipore; Serum Amyloid P component, SEQ ID NO: 1
- microbicidal activity (A. fumigatus conidia; Apcs−/− mouse plasma): increase of microbicidal activity
- SAP effect on microbicidal activity (A. fumigatus conidia; human serum depleted of C1q): abolished
- SAP effect on microbicidal activity (A. fumigatus conidia; human serum depleted of C3): abolished
- microbicidal activity (A. fumigatus conidia; wt mouse plasma): increase of microbicidal activity
- MAC formation on conidia ([1]; FB-depleted serum): enhanced
- MAC formation on conidia ([1]; FH-depleted serum): enhanced
- MAC formation on conidia ([1]; MBL-depleted serum): enhanced
- MAC formation on conidia ([1]; normal serum, 1 min and 30 min): enhanced
